Data on 25 compounds can be found in patent publication US8410112B2, “Compounds useful as inhibitors of ATR kinase” (Vertex Pharmaceuticals Incorporated, priority 2008, dated 2013).

T1 sequence (Q13535 whole entry): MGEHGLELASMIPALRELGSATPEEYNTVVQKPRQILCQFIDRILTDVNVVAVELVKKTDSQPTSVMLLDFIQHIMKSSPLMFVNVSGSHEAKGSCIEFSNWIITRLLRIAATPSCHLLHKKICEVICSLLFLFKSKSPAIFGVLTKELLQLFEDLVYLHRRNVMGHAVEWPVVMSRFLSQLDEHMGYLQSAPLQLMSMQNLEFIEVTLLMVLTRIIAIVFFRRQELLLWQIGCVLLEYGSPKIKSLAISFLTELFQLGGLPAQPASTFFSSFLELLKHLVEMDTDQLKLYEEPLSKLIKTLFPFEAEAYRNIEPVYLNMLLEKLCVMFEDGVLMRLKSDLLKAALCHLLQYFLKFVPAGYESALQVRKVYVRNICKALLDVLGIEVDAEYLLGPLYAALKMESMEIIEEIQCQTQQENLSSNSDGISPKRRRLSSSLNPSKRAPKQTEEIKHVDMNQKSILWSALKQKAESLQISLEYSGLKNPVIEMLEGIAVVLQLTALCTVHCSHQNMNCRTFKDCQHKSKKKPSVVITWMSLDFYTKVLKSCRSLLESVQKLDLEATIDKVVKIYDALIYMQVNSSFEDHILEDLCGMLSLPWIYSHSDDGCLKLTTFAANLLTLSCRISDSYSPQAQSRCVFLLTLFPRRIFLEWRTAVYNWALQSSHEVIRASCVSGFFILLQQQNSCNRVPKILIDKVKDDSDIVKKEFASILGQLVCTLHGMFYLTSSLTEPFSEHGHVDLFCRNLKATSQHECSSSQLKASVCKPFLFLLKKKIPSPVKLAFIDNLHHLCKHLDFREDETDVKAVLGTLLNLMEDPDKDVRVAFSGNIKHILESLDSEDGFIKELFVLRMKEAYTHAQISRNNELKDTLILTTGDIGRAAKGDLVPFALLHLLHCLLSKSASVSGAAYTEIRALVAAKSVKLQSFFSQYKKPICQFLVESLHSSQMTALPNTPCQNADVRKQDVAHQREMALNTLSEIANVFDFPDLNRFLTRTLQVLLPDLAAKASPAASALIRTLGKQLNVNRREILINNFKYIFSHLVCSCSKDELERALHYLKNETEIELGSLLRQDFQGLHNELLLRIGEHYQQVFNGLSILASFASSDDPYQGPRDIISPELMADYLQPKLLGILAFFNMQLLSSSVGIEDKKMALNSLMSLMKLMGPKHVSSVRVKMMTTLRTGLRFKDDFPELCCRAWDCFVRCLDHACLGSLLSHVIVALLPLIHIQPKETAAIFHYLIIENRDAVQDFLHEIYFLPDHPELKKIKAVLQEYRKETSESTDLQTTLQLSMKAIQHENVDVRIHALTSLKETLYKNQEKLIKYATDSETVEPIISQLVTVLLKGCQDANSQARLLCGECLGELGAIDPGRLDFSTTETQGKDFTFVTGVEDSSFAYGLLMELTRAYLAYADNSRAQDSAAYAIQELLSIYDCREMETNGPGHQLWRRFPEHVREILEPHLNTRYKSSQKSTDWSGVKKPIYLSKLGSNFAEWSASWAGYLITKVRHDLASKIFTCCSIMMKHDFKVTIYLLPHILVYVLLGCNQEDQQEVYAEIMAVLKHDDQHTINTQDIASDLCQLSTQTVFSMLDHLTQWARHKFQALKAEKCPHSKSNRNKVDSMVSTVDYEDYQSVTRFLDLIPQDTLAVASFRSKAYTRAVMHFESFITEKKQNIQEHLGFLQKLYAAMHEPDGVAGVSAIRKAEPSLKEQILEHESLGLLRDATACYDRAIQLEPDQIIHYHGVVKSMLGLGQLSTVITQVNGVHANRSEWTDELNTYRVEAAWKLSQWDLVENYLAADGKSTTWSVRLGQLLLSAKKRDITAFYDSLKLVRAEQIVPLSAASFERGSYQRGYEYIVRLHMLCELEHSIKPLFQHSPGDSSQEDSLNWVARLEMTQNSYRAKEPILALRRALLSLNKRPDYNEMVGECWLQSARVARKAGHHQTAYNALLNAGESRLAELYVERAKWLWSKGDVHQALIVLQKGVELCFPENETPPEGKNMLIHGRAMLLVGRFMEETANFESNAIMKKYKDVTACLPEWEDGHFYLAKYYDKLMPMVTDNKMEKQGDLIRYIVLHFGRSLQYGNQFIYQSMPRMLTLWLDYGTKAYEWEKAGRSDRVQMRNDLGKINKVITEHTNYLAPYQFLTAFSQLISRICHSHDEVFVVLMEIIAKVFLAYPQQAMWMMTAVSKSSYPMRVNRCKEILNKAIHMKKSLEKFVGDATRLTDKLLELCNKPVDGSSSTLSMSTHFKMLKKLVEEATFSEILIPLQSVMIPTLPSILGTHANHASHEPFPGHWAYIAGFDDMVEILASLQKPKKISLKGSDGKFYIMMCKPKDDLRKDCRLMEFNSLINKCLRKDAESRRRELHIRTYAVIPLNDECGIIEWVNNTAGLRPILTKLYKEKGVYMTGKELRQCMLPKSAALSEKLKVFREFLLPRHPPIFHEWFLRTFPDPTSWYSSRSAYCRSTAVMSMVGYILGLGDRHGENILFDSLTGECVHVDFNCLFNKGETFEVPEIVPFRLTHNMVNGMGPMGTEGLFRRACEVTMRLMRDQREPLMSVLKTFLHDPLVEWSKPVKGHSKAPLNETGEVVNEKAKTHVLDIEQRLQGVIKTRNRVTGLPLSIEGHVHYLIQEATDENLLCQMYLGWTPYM

The test has as its target T1, full-length ATR (Homo sapiens, UniProt Q13535).
T1 construct: in the presence of 5 nM full-length ATR
The test is described as follows: ATR Inhibition Assay (radioactive-phosphate incorporation). The settings on record: Ki(app); 5 nM full-length ATR, 10 μM ATP, 800 μM target peptide, 25° C. Format: biochemical. An outline of the steps: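 After a 10-min pre-incubation of compound with 5 nM enzyme at 25 °C, ATP was added to start the reaction (final 10 μM [γ-33P]ATP, 800 μM peptide; Tris/HCl pH 7.5, MgCl2, DTT), which ran 24 h. Incorporated 33P was captured on phosphocellulose filters, and Ki(app) was fitted by non-linear regression.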
With `CCOC(=O)N1CC=C(c2cnc(N)c(-c3nc4ccccc4[nH]3)n2)CC1` [Compound I-250, ethyl 4-(5-amino-6-(1H-benzo[d]imidazol-2-yl)pyrazin-2-yl)-5,6-dihydropyridine-1(2H)-carboxylate], the Ki lay within 0.1 to 1 µM.

With `COCCOC(=O)N1CC=C(c2cnc(N)c(-c3nnc(-c4ccccc4)o3)n2)CC1` [Compound I-224, 2-methoxyethyl 4-(5-amino-6-(5-phenyl-1,3,4-oxadiazol-2-yl)pyrazin-2-yl)-5,6-dihydropyridine-1(2H)-carboxylate], the Ki is less than 0.1 µM.

Regarding `COCCOCC(=O)N1CC=C(c2cnc(N)c(-c3nc4ccccc4[nH]3)n2)CC1` [Compound I-140, 1-(4-(5-amino-6-(1H-benzo[d]imidazol-2-yl)pyrazin-2-yl)-5,6-dihydropyridin-1(2H)-yl)-2-(2-methoxyethoxy)ethanone], the Ki lay within 0.1 to 1 µM.

Regarding `CCS(=O)(=O)N1CC=C(c2cnc(N)c(C(=O)Nc3cnccn3)n2)CC1` [Compound I-170, 3-amino-6-(1-(ethylsulfonyl)-1,2,3,6-tetrahydropyridin-4-yl)-N-(pyrazin-2-yl)pyrazine-2-carboxamide], the Ki is 0.1 to 1 µM.

`Nc1ncc(N2CC[C@H](NS(=O)(=O)c3ccccc3)C2)nc1-c1nc2ccccc2[nH]1` [Compound I-107, (S)-N-(1-(5-amino-6-(1H-benzo[d]imidazol-2-yl)pyrazin-2-yl)pyrrolidin-3-yl)benzenesulfonamide]: the Ki was in the range of 0.1 to 1 µM.

As for `CCS(=O)(=O)N1CCN(c2cnc(N)c(-c3nnc(C4CCCCC4)o3)n2)CC1` [Compound I-72, 3-(5-cyclohexyl-1,3,4-oxadiazol-2-yl)-5-(4-(ethylsulfonyl)piperazin-1-yl)pyrazin-2-amine], the Ki lay within 1 to 10 µM.

Consider `N#CCN1CC=C(c2cnc(N)c(-c3nc4ccccc4[nH]3)n2)CC1` [Compound I-76, 2-(4-(5-amino-6-(1H-benzo[d]imidazol-2-yl)pyrazin-2-yl)-5,6-dihydropyridin-1(2H)-yl)ethanenitrile], for which the Ki fell in the range of 0.1 to 1 µM.

For the compound `CCNC(=O)O[C@H]1CCN(c2cnc(N)c(-c3nnc(-c4ccc(CNC)cc4)o3)n2)C1` [Compound I-372, [(3S)-1-[5-Amino-6-[5-[4-(methylaminomethyl)phenyl]-1,3,4-oxadiazol-2-yl]pyrazin-2-yl]pyrrolidin-3-yl]N-ethylcarbamate], the Ki is 0.1 to 1 µM.

With `Nc1ncc(N2CCN(C(=O)C3CCCC3)CC2)nc1-c1nnc(-c2ccccc2)o1` [Compound I-194, (4-(5-amino-6-(5-phenyl-1,3,4-oxadiazol-2-yl)pyrazin-2-yl)piperazin-1-yl)(cyclopentyl)methanone], the Ki lay in the range of 0.1 to 1 µM.

On to `CCS(=O)(=O)N1CC=C(c2cnc(N)c(C(=O)Nc3ccnc(C)c3)n2)CC1` [Compound I-166, 3-amino-6-(1-(ethylsulfonyl)-1,2,3,6-tetrahydropyridin-4-yl)-N-(2-methylpyridin-4-yl)pyrazine-2-carboxamide], for which the Ki was 0.1 to 1 µM.

With `Nc1ncc(N2CC[C@H](NC(=O)c3ccccn3)C2)nc1-c1nc2ccccc2[nH]1` [Compound I-193, (S)-N-(1-(5-amino-6-(1H-benzo[d]imidazol-2-yl)pyrazin-2-yl)pyrrolidin-3-yl)pyridine-2-carboxamide], the Ki was 0.1 to 1 µM.

In the case of `COCC(=O)N[C@H]1CCN(c2cnc(N)c(-c3nc4ccccc4[nH]3)n2)C1` [Compound I-182, (S)-N-(1-(5-amino-6-(1H-benzo[d]imidazol-2-yl)pyrazin-2-yl)pyrrolidin-3-yl)-2-methoxyethanamide], the Ki is 1 to 10 µM.

`CCS(=O)(=O)N1CCN(c2cnc(N)c(-c3nnc(Nc4ccccc4)o3)n2)CC1` [Compound I-69, 5-(3-amino-6-(4-(ethylsulfonyl)piperazin-1-yl)pyrazin-2-yl)-N-phenyl-1,3,4-oxadiazol-2-amine]: the Ki lay within 0.1 to 1 µM.

`CNCc1ccc(-c2nnc(-c3nc(N4CCC[C@H]4CO)cnc3N)o2)cc1` [Compound I-352, [(2S)-1-[5-Amino-6-[5-[4-(methylaminomethyl)phenyl]-1,3,4-oxadiazol-2-yl]pyrazin-2-yl]pyrrolidin-2-yl]methanol]: the Ki was in the range of 0.1 to 1 µM.

Take `CN(C)C(=O)N1CCN(c2cnc(N)c(C(=O)Nc3ccccn3)n2)CC1` [Compound I-229, 3-amino-6-(4-(dimethylcarbamoyl)piperazin-1-yl)-N-(pyridin-2-yl)pyrazine-2-carboxamide]: the Ki was in the range of 0.1 to 1 µM.

For the compound `CN(C)S(=O)(=O)N1CCN(c2cnc(N)c(-c3nc4ccccc4[nH]3)n2)CC1` [Compound I-88, 4-(5-amino-6-(1H-benzo[d]imidazol-2-yl)pyrazin-2-yl)-N,N-dimethylpiperazine-1-sulfonamide], the Ki lay in the range of 0.1 to 1 µM.

As to `Cc1ccc2nc(-c3nc(N4CCN(C(=O)c5ccco5)CC4)cnc3N)[nH]c2c1` [Compound I-53, (4-(5-amino-6-(6-methyl-1H-benzo[d]imidazol-2-yl)pyrazin-2-yl)piperazin-1-yl)(furan-2-yl)methanone], the Ki fell in the range of 0.1 to 1 µM.

Regarding `Nc1ncc(N2CCN(S(=O)(=O)Cc3ccccc3)CC2)nc1C(=O)Nc1ccccn1` [Compound I-253, 3-amino-6-(4-(benzylsulfonyl)piperazin-1-yl)-N-(pyridin-2-yl)pyrazine-2-carboxamide], the Ki was 0.1 to 1 µM.

Take `Nc1ncc(N2CCN(S(=O)(=O)c3ccsc3)CC2)nc1C(=O)Nc1ccccn1` [Compound I-117, 3-amino-N-(pyridin-2-yl)-6-(4-(thiophen-3-ylsulfonyl)piperazin-1-yl)pyrazine-2-carboxamide]: the Ki lay in the range of 0.1 to 1 µM.

For the compound `Nc1ncc(N2CCN(S(=O)(=O)c3ccccc3)CC2)nc1-c1nnc(-c2ccccc2)o1` [Compound I-196, 3-(5-phenyl-1,3,4-oxadiazol-2-yl)-5-(4-(phenylsulfonyl)piperazin-1-yl)pyrazin-2-amine], the Ki lay within 0.1 to 1 µM.

In the case of `Nc1ncc(N2CC[C@H](NC(=O)c3cccnc3)C2)nc1-c1nc2ccccc2[nH]1` [Compound I-188, (S)-N-(1-(5-amino-6-(1H-benzo[d]imidazol-2-yl)pyrazin-2-yl)pyrrolidin-3-yl)pyridine-3-carboxamide], the Ki lay in the range of 0.1 to 1 µM.

Regarding `CCS(=O)(=O)NC1CC[C@H]2CN(c3cnc(N)c(-c4nnc(-c5ccc(CNC)cc5)o4)n3)C[C@@H]12` (stereo partly drawn) [Compound I-354, N-((3aS,6aR)-2-(5-Amino-6-(5-(4-((methylamino)methyl)phenyl)-1,3,4-oxadiazol-2-yl)pyrazin-2-yl)octahydrocyclopenta[c]pyrrol-4-yl)ethanesulfonamide], the Ki was in the range of 0.1 to 1 µM.

In the case of `Nc1ncc(N2CCN(S(=O)(=O)c3cccs3)CC2)nc1-c1nc2ccccc2[nH]1` [Compound I-104, 3-(1H-benzo[d]imidazol-2-yl)-5-(4-(thiophen-2-ylsulfonyl)piperazin-1-yl)pyrazin-2-amine], the Ki is 0.1 to 1 µM.

`Nc1ncc(N2CCN(C(=O)N3CCOCC3)CC2)nc1-c1nnc(-c2ccccc2)o1` [Compound I-216, (4-(5-amino-6-(5-phenyl-1,3,4-oxadiazol-2-yl)pyrazin-2-yl)piperazin-1-yl)(morpholino)methanone]: the Ki lay within 0.1 to 1 µM.

With `Cc1ccc2nc(-c3nc(N4CCOCC4)cnc3N)[nH]c2c1` [Compound I-3, 3-(6-methyl-1H-benzo[d]imidazol-2-yl)-5-morpholinopyrazin-2-amine], the Ki was in the range of 0.1 to 1 µM.
